For series [1] the following is noted: 75 weight % phosphoric acid; cited from earlier work.
In series [2] the test system is radish test crop. Nature of the series: Glasshouse crop safety trial, foliar spraying. In kind it is in vivo. The settings on record: foliar spraying at 5 leaf stage, 3.4 kg P2O5 per ha in 200 litres/ha water, assessed seven days after spraying. The procedure: Glasshouse trials were carried out in order to assess crop safety of the composition described above. The trials were carried out using a radish test crop grown in pots in a sand medium and fed via a nutrient solution. A randomised block design using 4 replicates was employed. The product was applied by foliar spraying at the 5 leaf growth stage using a rate equivalent to 10 kg/ha in 200 litres/ha water (equating to an input of 3.4 kg P2O5 per ha). […] The crop was assessed for symptoms of phytotoxicity seven days after spraying.

Here are results for one compound from patent publication US20210002182A1, “NOVEL PHOSPHATIC FERTILIZERS BASED ON ALKANOLAMINE SALTS OF PHOSPHORIC ACID” (Yara UK Limited, priority 2017, published 2021).

In the case of `O=P(O)(O)O` [phosphoric acid], the Freezing point in series [1] was −20 °C. For the same compound, in series [2], the “Symptoms of phytotoxicity (crop damage)” value is given as “signs of crop damage (leaf burn)”.
